We go through 16 compounds from patent publication US20220132846A1, “1-PYRIDYL-PYRAZOLYL AMIDE COMPOUNDS AND PREPARATION AND USES THEREOF” (HUNAN RESEARCH INSTITUTE OF CHEMICAL INDUSTRY CO., LTD., priority 2019, published 2022).

One test deals with Aphis fabae. The experiment in a line: Test against aphid, leaf dip method (Aphis fabae). The test is classed as in vivo. The settings on record: foliar; for mortality at 12.5 µg/mL: 12.5 mg/L; for mortality at 12.5 µg/mL / mortality at 50 µg/mL / mortality at 200 µg/mL / mortality at 500 µg/mL: after 24 hours, read-out: Activity (mortality) level against Aphis fabae; for mortality at 50 µg/mL: 50 mg/L; for mortality at 200 µg/mL: 200 mg/L; for mortality at 500 µg/mL: 500 mg/L. The procedure: For evaluating the activity of the compounds of this invention against Homoptera pests, Aphis fabae, wheat aphids, etc. were selected as the test insects, and the activity of the compounds of this invention against aphids was measured by leaf dip method indoors.
Leaf dip method (Aphis fabae): the test compound was dissolved in an appropriate solvent such as N,N-dimethylformamide, and then diluted with 0.2% aqueous solution of Tween 80 to the desired concentration, Those without the test compounds were set as blank controls, the treatments were replicated 3 times. Horsebean seedlings with no less than twenty 3-day-old Aphis fabae per plant was cut from the stem, 5 horsebean seedlings with the insects were dipped in the test solution for 5 seconds, then inserted into a sponge filled with water after sucked dry using filter paper, then covered with a glass tube and placed in a chamber for culture. After 24 hours, the number of living and dead insects were investigated and the results were averaged. […]

Test [1] relates to Armyworm (Mythimna separata (Walker)). The experiment in a line: Test against armyworm, Potter tower method. It counts as in vivo. The settings on record: for mortality at 12.5 µg/mL / mortality at 50 µg/mL / mortality at 500 µg/mL: Mythimna separata, third-instar larvae, after 72 hours, read-out: Activity (mortality) level against armyworm; for mortality at 12.5 µg/mL: 12.5 mg/L; for mortality at 50 µg/mL: 50 mg/L; for mortality at 500 µg/mL: 500 mg/L; for Activity against armyworm, further screening (in words): compared with chlorantraniliprole (D1). The procedure:
Potter tower method: the test compound was dissolved in an appropriate solvent such as N,N-dimethylformamide, and then diluted with 0.2% aqueous solution of Tween 80 to the desired concentration, Those without the test compounds were set as blank controls. The fresh and tender corn leaves were taken and cut into fragments of basically the same size, then put into a Petri dish (diameter 90 mm) padded with filter paper in advance. Ten third-instar larvae of test insects were transferred into the dish and then placed under the Potter spray tower for being sprayed, each concentration treatment was sprayed at the amount of 1 mL and replicated 3 times. The dish was covered and then placed in a chamber for culture and observed regularly, after 72 hours, the dead insects was investigated and recorded and the mean mortality was calculated. […]

`CCCNC(=O)c1cc(Cl)cc(Cl)c1N(C)C(=O)c1cc(Br)nn1-c1ncccc1Cl` [Compound 3, N-[2,4-dichloro-6-[(propylamino)carbonyl]phenyl]-N-methyl-1-(3-chloro-2-pyridinyl)-3-bromo-1H-pyrazole-5-carboxamide]: in the test with Aphis fabae, the mortality at 12.5 µg/mL is 90 to 100%, the mortality at 50 µg/mL was in the range of 90 to 100%, the mortality at 200 µg/mL was in the range of 90 to 100% and the mortality at 500 µg/mL fell in the range of 90 to 100%. In test [1], the mortality at 12.5 µg/mL lay in the range of 90 to 100%, the mortality at 50 µg/mL lay in the range of 90 to 100% and the mortality at 500 µg/mL was in the range of 90 to 100%.

As to `CC(C)NC(=O)c1cc(Cl)cc(Cl)c1N(C)C(=O)c1cc(Br)nn1-c1ncccc1Cl` [Compound 5, N-[2,4-dichloro-6-[(isopropylamino)carbonyl]phenyl]-N-methyl-1-(3-chloro-2-pyridinyl)-3-bromo-1H-pyrazole-5-carboxamide], in the test with Aphis fabae, the mortality at 12.5 µg/mL lay in the range of 90 to 100%, the mortality at 50 µg/mL fell in the range of 90 to 100%, the mortality at 200 µg/mL is 90 to 100% and the mortality at 500 µg/mL is 90 to 100%. For the same compound, in test [1], the mortality at 12.5 µg/mL lay in the range of 90 to 100%; the mortality at 50 µg/mL lay in the range of 90 to 100%; the mortality at 500 µg/mL lay within 90 to 100%; the “Activity against armyworm, further screening (in words)” value is given as “excellent activity”.

As for `CN(C(=O)c1cc(Br)nn1-c1ncccc1Cl)c1c(Cl)cc(Cl)cc1C(=O)NC1CC1` [Compound 6, N-[2,4-dichloro-6-[(cyclopropylamino)carbonyl]phenyl]-N-methyl-1-(3-chloro-2-pyridinyl)-3-bromo-1H-pyrazole-5-carboxamide], in the test on Aphis fabae, the mortality at 12.5 µg/mL was 90 to 100%, the mortality at 50 µg/mL lay in the range of 90 to 100%, the mortality at 200 µg/mL was in the range of 90 to 100% and the mortality at 500 µg/mL lay within 90 to 100%. In test [1], the mortality at 12.5 µg/mL lay within 90 to 100%, the mortality at 50 µg/mL is 90 to 100% and the mortality at 500 µg/mL fell in the range of 90 to 100%.

Consider `CCCCNC(=O)c1cc(Cl)cc(Cl)c1N(C)C(=O)c1cc(Br)nn1-c1ncccc1Cl` [Compound 7, N-[2,4-dichloro-6-[(butylamino)carbonyl]phenyl]-N-methyl-1-(3-chloro-2-pyridinyl)-3-bromo-1H-pyrazole-5-carboxamide], for which, in the test with Aphis fabae, the mortality at 50 µg/mL fell in the range of 90 to 100%, the mortality at 200 µg/mL is 90 to 100% and the mortality at 500 µg/mL was 90 to 100%. In addition, in test [1], the mortality at 50 µg/mL was in the range of 90 to 100% and the mortality at 500 µg/mL fell in the range of 90 to 100%.

Take `CC(C)N(C)C(=O)c1cc(Cl)cc(Cl)c1N(C)C(=O)c1cc(Br)nn1-c1ncccc1Cl` [Compound 13, N-[2,4-dichloro-6-[(methyl(isopropyl)amino)carbonyl]phenyl]-N-methyl-1-(3-chloro-2-pyridinyl)-3-bromo-1H-pyrazole-5-carboxamide]: in the test with Aphis fabae, the mortality at 12.5 µg/mL was 90 to 100%, the mortality at 50 µg/mL was 90 to 100%, the mortality at 200 µg/mL lay in the range of 90 to 100% and the mortality at 500 µg/mL was 90 to 100%. In addition, in test [1], the mortality at 50 µg/mL lay within 90 to 100% and the mortality at 500 µg/mL was 90 to 100%.

`CN(C(=O)c1cc(Br)nn1-c1ncccc1Cl)c1c(Cl)cc(Cl)cc1C(=O)N(C)C1CC1` [Compound 14, N-[2,4-dichloro-6-[(methyl(cyclopropyl)amino)carbonyl]phenyl]-N-methyl-1-(3-chloro-2-pyridinyl)-3-bromo-1H-pyrazole-5-carboxamide]: in the test with Aphis fabae, the mortality at 12.5 µg/mL lay in the range of 90 to 100%, the mortality at 50 µg/mL lay in the range of 90 to 100%, the mortality at 200 µg/mL is 90 to 100% and the mortality at 500 µg/mL was in the range of 90 to 100%. In test [1], the mortality at 12.5 µg/mL fell in the range of 90 to 100%; the mortality at 50 µg/mL is 90 to 100%; the mortality at 500 µg/mL was 90 to 100%; the “Activity against armyworm, further screening (in words)” value is “excellent activity”.

Turning to `CCCN(CCC)C(=O)c1cc(Cl)cc(Cl)c1N(C)C(=O)c1cc(Br)nn1-c1ncccc1Cl` [Compound 16, N-[2,4-dichloro-6-[(dipropylamino)carbonyl]phenyl]-N-methyl-1-(3-chloro-2-pyridinyl)-3-bromo-1H-pyrazole-5-carboxamide], in the test with Aphis fabae, the mortality at 12.5 µg/mL fell in the range of 90 to 100%, the mortality at 50 µg/mL was 90 to 100%, the mortality at 200 µg/mL lay in the range of 90 to 100% and the mortality at 500 µg/mL lay within 90 to 100%. In test [1], the mortality at 50 µg/mL was in the range of 90 to 100% and the mortality at 500 µg/mL is 90 to 100%.

As to `CCN(C(=O)c1cc(Br)nn1-c1ncccc1Cl)c1c(Cl)cc(Cl)cc1C(=O)N(C)C` [Compound 17, N-[2,4-dichloro-6-[(dimethylamino)carbonyl]phenyl]-N-ethyl-1-(3-chloro-2-pyridinyl)-3-bromo-1H-pyrazole-5-carboxamide], in the test on Aphis fabae, the mortality at 12.5 µg/mL fell in the range of 90 to 100%, the mortality at 50 µg/mL was in the range of 90 to 100%, the mortality at 200 µg/mL is 90 to 100% and the mortality at 500 µg/mL was 90 to 100%. For the same compound, in test [1], the mortality at 12.5 µg/mL lay within 90 to 100%, the mortality at 50 µg/mL fell in the range of 90 to 100% and the mortality at 500 µg/mL was in the range of 90 to 100%.

Regarding `CCN(C)C(=O)c1cc(Cl)cc(Cl)c1N(CC)C(=O)c1cc(Br)nn1-c1ncccc1Cl` [Compound 18, N-[2,4-dichloro-6-[(methyl(ethyl)amino)carbonyl]phenyl]-N-ethyl-1-(3-chloro-2-pyridinyl)-3-bromo-1H-pyrazole-5-carboxamide], in the test on Aphis fabae, the mortality at 12.5 µg/mL fell in the range of 90 to 100%, the mortality at 50 µg/mL lay within 90 to 100%, the mortality at 200 µg/mL was 90 to 100% and the mortality at 500 µg/mL fell in the range of 90 to 100%. In test [1], the mortality at 50 µg/mL fell in the range of 90 to 100% and the mortality at 500 µg/mL lay within 90 to 100%.

As for `CCCN(C(=O)c1cc(Br)nn1-c1ncccc1Cl)c1c(Cl)cc(Cl)cc1C(=O)N(C)C` [Compound 19, N-[2,4-dichloro-6-[(dimethylamino)carbonyl]phenyl]-N-propyl-1-(3-chloro-2-pyridinyl)-3-bromo-1H-pyrazole-5-carboxamide], in the test on Aphis fabae, the mortality at 12.5 µg/mL lay within 90 to 100%, the mortality at 50 µg/mL lay in the range of 90 to 100%, the mortality at 200 µg/mL lay within 90 to 100% and the mortality at 500 µg/mL was 90 to 100%. Further, in test [1], the mortality at 50 µg/mL was 90 to 100% and the mortality at 500 µg/mL is 90 to 100%.

As to `CCCN(C)C(=O)c1cc(Cl)cc(Cl)c1N(CCC)C(=O)c1cc(Br)nn1-c1ncccc1Cl` [Compound 20, N-[2,4-dichloro-6-[(methyl(propyl)amino)carbonyl]phenyl]-N-propyl-1-(3-chloro-2-pyridinyl)-3-bromo-1H-pyrazole-5-carboxamide], in the test on Aphis fabae, the mortality at 200 µg/mL was in the range of 90 to 100% and the mortality at 500 µg/mL lay within 90 to 100%. Also, in test [1], the mortality at 50 µg/mL lay within 90 to 100% and the mortality at 500 µg/mL was in the range of 90 to 100%.

`CN(C)C(=S)c1cc(Cl)cc(Cl)c1N(C)C(=O)c1cc(Br)nn1-c1ncccc1Cl` [Compound 21, N-[2,4-dichloro-6-[(dimethylamino)thioxomethyl]phenyl]-N-methyl-1-(3-chloro-2-pyridinyl)-3-bromo-1H-pyrazole-5-carboxamide]: in the test with Aphis fabae, the mortality at 12.5 µg/mL is 90 to 100%, the mortality at 50 µg/mL lay within 90 to 100%, the mortality at 200 µg/mL was 90 to 100% and the mortality at 500 µg/mL lay in the range of 90 to 100%. Besides, in test [1], the mortality at 50 µg/mL lay in the range of 90 to 100% and the mortality at 500 µg/mL was in the range of 90 to 100%.

Take `CC(C)N(C)C(=S)c1cc(Cl)cc(Cl)c1N(C)C(=O)c1cc(Br)nn1-c1ncccc1Cl` [Compound 22, N-[2,4-dichloro-6-[(methyl(isopropyl)amino)thioxomethyl]phenyl]-N-methyl-1-(3-chloro-2-pyridinyl)-3-bromo-1H-pyrazole-5-carboxamide]: in the test with Aphis fabae, the mortality at 12.5 µg/mL was in the range of 90 to 100%, the mortality at 50 µg/mL is 90 to 100%, the mortality at 200 µg/mL lay within 90 to 100% and the mortality at 500 µg/mL was in the range of 90 to 100%. For the same compound, in test [1], the mortality at 12.5 µg/mL was in the range of 90 to 100%, the mortality at 50 µg/mL fell in the range of 90 to 100% and the mortality at 500 µg/mL is 90 to 100%.

Turning to `CCN(CC)C(=S)c1cc(Cl)cc(Cl)c1N(C)C(=O)c1cc(Br)nn1-c1ncccc1Cl` [Compound 23, N-[2,4-dichloro-6-[(diethylamino)thioxomethyl]phenyl]-N-methyl-1-(3-chloro-2-pyridinyl)-3-bromo-1H-pyrazole-5-carboxamide], in the test with Aphis fabae, the mortality at 200 µg/mL was 90 to 100% and the mortality at 500 µg/mL is 90 to 100%. Also, in test [1], the mortality at 12.5 µg/mL lay within 90 to 100%, the mortality at 50 µg/mL lay in the range of 90 to 100% and the mortality at 500 µg/mL fell in the range of 90 to 100%.

In the case of `CCN(CC)C(=S)c1cc(Cl)cc(Cl)c1N(C)C(=S)c1cc(Br)nn1-c1ncccc1Cl` [Compound 24, N-[2,4-dichloro-6-[(diethylamino)thioxomethyl]phenyl]-N-methyl-1-(3-chloro-2-pyridinyl)-3-bromo-1H-pyrazole-5-carbothioamide], in the test with Aphis fabae, the mortality at 200 µg/mL is 90 to 100% and the mortality at 500 µg/mL lay within 90 to 100%. Moreover, in test [1], the mortality at 50 µg/mL fell in the range of 90 to 100% and the mortality at 500 µg/mL was in the range of 90 to 100%.

As for `O=[N+]([O-])/N=C1\NCCN1Cc1ccc(Cl)nc1` [imidacloprid, reference compound], the 50% lethal concentration (LC50) in the test with Aphis fabae (read-out: LC50 against Aphis fabae) was less than 1 µg/mL.
